Source: patent US8722849B2, “Polypeptides” (Novo Nordisk A/S, priority 2011, dated 2014)
Starred links: 1 amine or outer side, 2 acyl side, 3 side chain; linkers in the order of their positions; H or OH if unused. Positions of bridges follow the written chain, without caps; N, C: chain ends. Residues, ends and D or L forms follow the SMILES beside them. *: point of attachment. C20 diacid = O=C(O)CCCCCCCCCCCCCCCCCCC(=O)*; γGlu = O=C(O)[C@H](CCC(=O)[*:2])N[*:1]

How the values were obtained:
[1] = Assay (IX) pK, determination of T½ in mini-pig; assay type: in vivo, Göttingen mini-pigs; conditions: male, Göttingen, iv, 2 nmol/kg; minipig; plasma terminal half-life
[2] = Assay (III) ThT fibrillation assay for physical stability; assay type: physicochemical
Method in brief: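 Freshly prepared formulations, pH-adjusted, with 1 μM ThT; four or eight replicates incubated at 37 °C under 960 rpm orbital shaking. Fluorescence (ex 444/em 485 nm) read every 20 min; […]. Peptide concentration measured by RP-HPLC before and after the run.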

[3] = system: food intake; assay: Assay (I) efficacy testing on appetite (food intake), ad libitum fed rat model; assay type: in vivo, Sprague Dawley (SD) rats; conditions: 3 nmol/kg
Method in brief: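 Sprague Dawley rats (200–250 g), single-housed under reversed light cycle with free food and water, got one ip, po or sc dose of 0.01–3 mg/kg just before lights-off. Individual food intake recorded hourly for 7 h, then at 24 h and sometimes 48 h; groups of 5–8, Grubbs outliers excluded.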

half-life [1]	ThT pH 4.0 lag time (h) ([2]; ThT fibrillation assay)	ThT pH 4.0 lag time ([2]; Table 8)	ThT pH 4.0 lag time ([2]; Table 9)	ThT pH 4.0 lag time ([2]; ThT fibrillation assay)	Compound	Food intake reduction 0-24 h 3 nmol/kg (%) [3]	Food intake reduction 24-48 h 3 nmol/kg (%) [3]
90 h	12.3 h	–	–	–	CC[C@H](C)[C@H](NC(=O)[C@@H]1CCCN1C(=O)CNC(=O)[C@H](Cc1ccccc1)NC(=O)[C@H](CC(N)=O)NC(=O)[C@H](CC(N)=O)NC(=O)[C@H](CO)NC(=O)[C@H](CO)NC(=O)[C@H](Cc1c[nH]cn1)NC(=O)[C@H](Cc1c[nH]cn1)NC(=O)[C@H](CC(C)C)NC(=O)[C@H](Cc1ccccc1)NC(=O)[C@H](CCC(=O)O)NC(=O)[C@H](C)NC(=O)[C@H](CC(C)C)NC(=O)[C@H](CCCNC(=N)N)NC(=O)[C@H](CCC(N)=O)NC(=O)[C@@H](NC(=O)[C@H](C)NC(=O)[C@@H]1CSSC[C@H](NC(=O)[C@H](CCCCN)NC(=O)CC[C@H](NC(=O)CCCCCCCCCCCCCCCCCCC(=O)O)C(=O)O)C(=O)N[C@@H](CC(N)=O)C(=O)N[C@@H]([C@@H](C)O)C(=O)N[C@@H](C)C(=O)N[C@@H]([C@@H](C)O)C(=O)N1)[C@@H](C)O)C(=O)N[C@@H](CC(C)C)C(=O)N1CCC[C@H]1C(=O)N1CCC[C@H]1C(=O)N[C@H](C(=O)N[C@@H](CC(N)=O)C(=O)N[C@H](C(=O)NCC(=O)N[C@@H](CO)C(=O)N[C@@H](CC(N)=O)C(=O)N[C@H](C(=O)N[C@@H](Cc1ccc(O)cc1)C(N)=O)[C@@H](C)O)C(C)C)[C@@H](C)O [Example 27, N-alpha-[(S)-4-Carboxy-4-(19-carboxynonadecanoylamino)butyryl]-[Glu14,His17]-pramlintide] ({C20 diacid-γGlu}-KCNTATCATQRLAEFLHHSSNNFGPILPPTNVGSNTY-NH2; disulfide 2-7 (inferred))	56%	53%
98 h	>45 h	>45 h	>45 h	>45 h	CC[C@H](C)[C@H](NC(=O)[C@@H]1CCCN1C(=O)CNC(=O)[C@H](Cc1ccccc1)NC(=O)[C@H](CC(N)=O)NC(=O)[C@H](CC(N)=O)NC(=O)[C@H](CO)NC(=O)[C@H](CO)NC(=O)[C@H](Cc1c[nH]cn1)NC(=O)[C@H](CCCNC(=N)N)NC(=O)[C@H](CC(C)C)NC(=O)[C@H](Cc1ccccc1)NC(=O)[C@H](CCC(=O)O)NC(=O)[C@H](C)NC(=O)[C@H](CC(C)C)NC(=O)[C@H](CCCNC(=N)N)NC(=O)[C@H](CCC(N)=O)NC(=O)[C@@H](NC(=O)[C@H](C)NC(=O)[C@@H]1CSSC[C@H](NC(=O)[C@H](CCCCN)NC(=O)CC[C@H](NC(=O)CCCCCCCCCCCCCCCCCCC(=O)O)C(=O)O)C(=O)N[C@@H](CC(N)=O)C(=O)N[C@@H]([C@@H](C)O)C(=O)N[C@@H](C)C(=O)N[C@@H]([C@@H](C)O)C(=O)N1)[C@@H](C)O)C(=O)N[C@@H](CC(C)C)C(=O)N1CCC[C@H]1C(=O)N1CCC[C@H]1C(=O)N[C@H](C(=O)N[C@@H](CC(N)=O)C(=O)N[C@H](C(=O)NCC(=O)N[C@@H](CO)C(=O)N[C@@H](CC(N)=O)C(=O)N[C@H](C(=O)N1CCC[C@H]1C(N)=O)[C@@H](C)O)C(C)C)[C@@H](C)O [Example 53, N-alpha-[(S)-4-Carboxy-4-(19-carboxynonadecanoylamino)butyryl]-[Glu14,Arg17,Pro37]-pramlintide]	40%	28%
